Assay [1] deals with endogenous cellular STAT1 (phosphorylated at Tyr701) in NCI-H1373 cells. Description: Phospho-STAT1 (Tyr701) LANCE Ultra TR-FRET Detection Assay. It counts as cell-based. As to conditions: Homo sapiens, NCI-H1373, 48 h, phospho-STAT1 (Tyr701) induction, read-out: NH1373 pSTAT1 EC50. (Time-resolved FRET reads energy transfer from a long-lived donor to a nearby acceptor.)
In a further assay the target is T1, PARP7 (Homo sapiens, UniProt Q7Z3E1).
T1 sequence (Q7Z3E1 1-657): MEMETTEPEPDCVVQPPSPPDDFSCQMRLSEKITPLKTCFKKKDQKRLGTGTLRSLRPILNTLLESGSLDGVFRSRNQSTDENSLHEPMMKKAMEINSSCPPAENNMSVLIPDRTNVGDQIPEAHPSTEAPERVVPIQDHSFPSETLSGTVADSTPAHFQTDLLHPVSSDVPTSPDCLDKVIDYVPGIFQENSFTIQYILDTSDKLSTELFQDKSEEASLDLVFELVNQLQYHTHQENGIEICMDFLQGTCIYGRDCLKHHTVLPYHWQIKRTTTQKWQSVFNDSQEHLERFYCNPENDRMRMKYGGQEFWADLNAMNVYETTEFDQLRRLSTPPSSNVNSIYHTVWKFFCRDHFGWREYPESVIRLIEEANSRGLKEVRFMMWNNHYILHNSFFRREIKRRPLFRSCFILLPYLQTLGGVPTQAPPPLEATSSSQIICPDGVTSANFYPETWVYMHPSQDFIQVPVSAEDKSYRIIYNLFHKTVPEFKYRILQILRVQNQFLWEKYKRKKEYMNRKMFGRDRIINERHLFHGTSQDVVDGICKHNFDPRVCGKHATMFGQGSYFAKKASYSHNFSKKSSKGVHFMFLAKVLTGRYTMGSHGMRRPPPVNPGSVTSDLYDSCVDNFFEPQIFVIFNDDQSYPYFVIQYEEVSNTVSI
As to the kind of experiment: Probe Displacement Assay for PARP7 (MSD electrochemiluminescent, biotinylated probe RBNO11147). As to conditions: displacement of biotinylated probe RBNO11147 from PARP7 NAD+-binding site; read-out: MSD ProbeDisp PARP7 IC50.

Regarding `C[C@@H](CCCn1ccc2cc(-c3ccc(C(F)(F)F)cn3)c(F)c(F)c2c1=O)Nc1cn[nH]c(=O)c1C(F)(F)F` [Example 55, (S)-7,8-difluoro-2-(4-((6-oxo-5-(trifluoromethyl)-1,6-dihydropyridazin-4-yl)amino)pentyl)-6-(5-(trifluoromethyl)pyridin-2-yl)isoquinolin-1(2H)-one], the EC50 (in general, the midpoint of the concentration-response curve) in assay [1] is 39.1 nM. On PARP7, the IC50 (as a rule, the midpoint of a concentration-inhibition curve) is 0.692 nM.
The like results for `C[C@@H](CCCn1ccc2cc(-c3cc(N)c(C(F)(F)F)cn3)c(F)cc2c1=O)Nc1cn[nH]c(=O)c1C(F)(F)F` [Example 49, 6-[4-amino-5-(trifluoromethyl)-2-pyridyl]-7-fluoro-2-[(4S)-4-[[6-oxo-5-(trifluoromethyl)-1H-pyridazin-4-yl]amino]pentyl]isoquinolin-1-one] were, in that order, 54.1 nM and 0.413 nM.
Regarding `C[C@@H](CCCn1ccc2cc(-c3nc(C(F)F)cs3)c(F)cc2c1=O)Nc1cn[nH]c(=O)c1C(F)(F)F` [Example 301, (S)-6-(4-(difluoromethyl)thiazol-2-yl)-7-fluoro-2-(4-((6-oxo-5-(trifluoromethyl)-1,6-dihydropyridazin-4-yl)amino)pentyl)isoquinolin-1(2H)-one], in assay [1], the EC50 was 549 nM. The IC50 at PARP7 turned out to be 0.508 nM.
Take `C[C@@H](CCCn1cnc2cc(-c3ncc(C(F)(F)F)c(N4C[C@@H](O)[C@@H]4C)n3)c(F)cc2c1=O)Nc1cn[nH]c(=O)c1C(F)(F)F` [Example 314, 6-fluoro-7-(4-((2S,3R)-3-hydroxy-2-methylazetidin-1-yl)-5-(trifluoromethyl)pyrimidin-2-yl)-3-((S)-4-((6-oxo-5-(trifluoromethyl)-1,6-dihydropyridazin-4-yl)amino)pentyl)quinazolin-4(3H)-one]: the EC50 in assay [1] was determined as 6.08 nM. The IC50 on PARP7 worked out at 0.185 nM.
The like results for `C[C@@H](CCCn1ccc2cc(-c3ccc(C(F)F)cn3)c(F)cc2c1=O)Nc1cn[nH]c(=O)c1C(F)(F)F` [Example 33, 6-[5-(difluoromethyl)-2-pyridyl]-7-fluoro-2-[(4S)-4-[[6-oxo-5-(trifluoromethyl)-1H-pyridazin-4-yl]amino]pentyl]isoquinolin-1-one] were, in that order, 168 nM and 0.5 nM.
Consider `Nc1nc(-c2cc3ccn(CCC[C@H](CCOC(F)F)Nc4cn[nH]c(=O)c4C(F)(F)F)c(=O)c3cc2F)ncc1C(F)(F)F` [Example 467, 6-[4-amino-5-(trifluoromethyl)pyrimidin-2-yl]-2-[(4R)-6-(difluoromethoxy)-4-[[6-oxo-5-(trifluoromethyl)-1H-pyridazin-4-yl]amino]hexyl]-7-fluoro-isoquinolin-1-one], for which the half-maximal effective concentration (EC50) in assay [1] turned out to be 4.13 nM.
As for `COc1cnc(-c2cc3ccn(CCC[C@H](C)Nc4cn[nH]c(=O)c4C(F)(F)F)c(=O)c3cc2F)nc1N1CC(O)(C(F)(F)F)C1` [Example 286, (S)-7-fluoro-6-(4-(3-hydroxy-3-(trifluoromethyl)azetidin-1-yl)-5-methoxypyrimidin-2-yl)-2-(4-((6-oxo-5-(trifluoromethyl)-1,6-dihydropyridazin-4-yl)amino)pentyl)isoquinolin-1(2H)-one], the EC50 in assay [1] came to 61.9 nM.
Still for that read-out and setting: the result for `O=c1[nH]ncc(N2C[C@@H](F)C[C@H]2CCCn2ccc3cc(-c4ncc(C(F)(F)F)cn4)c(F)cc3c2=O)c1C(F)(F)F` [Example 141, 7-fluoro-2-[3-[(2R,4S)-4-fluoro-1-[6-oxo-5-(trifluoromethyl)-1H-pyridazin-4-yl]pyrrolidin-2-yl]propyl]-6-[5-(trifluoromethyl)pyrimidin-2-yl]isoquinolin-1-one] reads 16.2 nM; that for `C[C@@H](CCCn1ccc2cc(-c3cnc(Cl)c(N)n3)c(F)cc2c1=O)Nc1cn[nH]c(=O)c1C(F)(F)F` [Example 351, (S)-6-(6-amino-5-chloropyrazin-2-yl)-7-fluoro-2-(4-((6-oxo-5-(trifluoromethyl)-1,6-dihydropyridazin-4-yl)amino)pentyl)isoquinolin-1(2H)-one], 8.39 nM; that for `CC#C[C@@H](CCCn1ccc2cc(-c3ncc(C(F)(F)F)cn3)c(F)c(F)c2c1=O)Nc1cn[nH]c(=O)c1C(F)(F)F` [Example 161, 7,8-difluoro-2-[(4R)-4-[[6-oxo-5-(trifluoromethyl)-1H-pyridazin-4-yl]amino]hept-5-ynyl]-6-[5-(trifluoromethyl)pyrimidin-2-yl]isoquinolin-1-one], 28.7 nM.
Same read-out and setting: the result for `O=c1[nH]ncc(N[C@H]2CCC[C@@H](Cn3ccc4cc(-c5ncc(Cl)cn5)c(F)c(F)c4c3=O)C2)c1C(F)(F)F` [Example 246, 6-(5-chloropyrimidin-2-yl)-7,8-difluoro-2-(((1R,3S)-3-((6-oxo-5-(trifluoromethyl)-1,6-dihydropyridazin-4-yl)amino)cyclohexyl)methyl)isoquinolin-1(2H)-one] reads 3.78 nM; that for `C[C@@H](CCCn1ccc2cc(-c3ncc(C(C)(C)O)cn3)c(F)cc2c1=O)Nc1cn[nH]c(=O)c1C(F)(F)F` [Example 74, 7-fluoro-6-[5-(1-hydroxy-1-methyl-ethyl)pyrimidin-2-yl]-2-[(4S)-4-[[6-oxo-5-(trifluoromethyl)-1H-pyridazin-4-yl]amino]pentyl]isoquinolin-1-one], 65.3 nM; that for `COc1cnc(-c2cc3ncn(CCC[C@H](COC(F)F)Nc4cn[nH]c(=O)c4C(F)(F)F)c(=O)c3cc2F)nc1N` [Example 393, (R)-7-(4-amino-5-methoxypyrimidin-2-yl)-3-(5-(difluoromethoxy)-4-((6-oxo-5-(trifluoromethyl)-1,6-dihydropyridazin-4-yl)amino)pentyl)-6-fluoroquinazolin-4(3H)-one], 22.7 nM.
Still for that read-out and setting: under `C[C@@H](CCCn1cnc2cc(-c3ncc(OCCO)cn3)c(F)cc2c1=O)Nc1cn[nH]c(=O)c1C(F)(F)F` [Example 127, (S)-6-fluoro-7-(5-(2-hydroxyethoxy)pyrimidin-2-yl)-3-(4-((6-oxo-5-(trifluoromethyl)-1,6-dihydropyridazin-4-yl)amino)pentyl)quinazolin-4(3H)-one] stands 474 nM; under `O=c1[nH]ncc(N[C@H](CCCn2ccc3cc(-c4ncc(C(F)(F)F)cn4)c(F)cc3c2=O)CCOC(F)F)c1C(F)(F)F` [Example 466, 2-[(4R)-6-(difluoromethoxy)-4-[[6-oxo-5-(trifluoromethyl)-1H-pyridazin-4-yl]amino]hexyl]-7-fluoro-6-[5-(trifluoromethyl)pyrimidin-2-yl]isoquinolin-1-one], 6.52 nM.
With `COc1cnc(-c2cc3ncn(CCC[C@H](C)Nc4cn[nH]c(=O)c4C(F)(F)F)c(=O)c3cc2F)nc1N1CC(O)C1` [Example 208], in assay [1], the EC50 was 206 nM.
Take `O=c1[nH]ncc(N[C@H]2CCC[C@@H](Cn3cnc4cc(-c5ncc(C(F)F)cn5)c(F)cc4c3=O)C2)c1C(F)(F)F` [Example 244, 7-(5-(difluoromethyl)pyrimidin-2-yl)-6-fluoro-3-(((1R,3S)-3-((6-oxo-5-(trifluoromethyl)-1,6-dihydropyridazin-4-yl)amino)cyclohexyl)methyl)quinazolin-4(3H)-one]: the EC50 in assay [1] came to 5.19 nM.
As for `O=c1[nH]ncc(N[C@@H](CO)CCCn2ccc3cc(-c4ncc(Cl)cn4)c(F)cc3c2=O)c1C(F)(F)F` [Example 166, 6-(5-chloropyrimidin-2-yl)-7-fluoro-2-[(4R)-5-hydroxy-4-[[6-oxo-5-(trifluoromethyl)-1H-pyridazin-4-yl]amino]pentyl]isoquinolin-1-one], the EC50 in assay [1] is 128 nM.
On the same count and under the same terms, the result for `Nc1nc(-c2cc3ncn(CCC[C@H](COC(F)F)Nc4cn[nH]c(=O)c4C(F)(F)F)c(=O)c3cc2F)ncc1C(F)F` [Example 383, (R)-7-(4-amino-5-(difluoromethyl)pyrimidin-2-yl)-3-(5-(difluoromethoxy)-4-((6-oxo-5-(trifluoromethyl)-1,6-dihydropyridazin-4-yl)amino)pentyl)-6-fluoroquinazolin-4(3H)-one] reads 18.5 nM.
Still for that read-out and setting: under `Nc1nc(-c2cc3ccn(CCC[C@@H]4CC5(CC5)CN4c4cn[nH]c(=O)c4C(F)(F)F)c(=O)c3cc2F)ncc1C(F)F` [Example 143, 6-[4-amino-5-(difluoromethyl)pyrimidin-2-yl]-7-fluoro-2-[3-[(6R)-5-[6-oxo-5-(trifluoromethyl)-1H-pyridazin-4-yl]-5-azaspiro[2.4]heptan-6-yl]propyl]isoquinolin-1-one] stands 26.5 nM.
On the same count and under the same terms, under `CC(CCCn1ccc2cc(-c3ccc(C(F)(F)F)cn3)ccc2c1=O)Nc1cn[nH]c(=O)c1C(F)(F)F` (stereo not drawn) [Example 1, 2-(4-((6-oxo-5-(trifluoromethyl)-1,6-dihydropyridazin-4-yl)amino)pentyl)-6-(5-(trifluoromethyl)pyridin-2-yl)isoquinolin-1(2H)-one] stands 97.8 nM; under `CC[C@@H](CCCn1cnc2cc(-c3ncc(C(F)(F)F)c(N)n3)c(F)cc2c1=O)Nc1cn[nH]c(=O)c1C(F)(F)F` [Example 321, (S)-7-(4-amino-5-(trifluoromethyl)pyrimidin-2-yl)-6-fluoro-3-(4-((6-oxo-5-(trifluoromethyl)-1,6-dihydropyridazin-4-yl)amino)hexyl)quinazolin-4(3H)-one], 4.11 nM.
